Measurements taken from patent US11852632B2, “Cancer test device, cancer test method, and staining agent for use in cancer test” (MIE UNIVERSITY, priority 2016, dated 2023).
Read-outs that look alike come from different tables or passages of the source.

Assays:
healthy mucosa tissue = tested on: healthy mucosa tissue; parameters: species or system laboratory mouse; details: mouse, in vivo
Description: (§1) A laboratory mouse was used as the living body. […] The staining period was set at 5 minutes.

cancer tissue = assay type: in vivo, laboratory mouse; details: mouse; for depth to which the tissue is stained: in vivo
Description: as §1

[1] = molecular target: T1, cancer-related gene product STAT3 (Mus musculus, UniProt P42227); assay: Curcumin living body staining compared with anti-STAT3 antibody immunostaining of the same site, confocal laser microscope; assay type: in vivo, laboratory mouse; details: 1%-curcumin then 1%-Acid Red, FIG. 4A (b) versus (e)
T1 construct: used to stain the expressed STAT3-family cancer-related gene product in the living cell; from tissue; host or cells: inner wall of the large intestine of a living laboratory mouse (cancerous and healthy sites)
Source text: The sections (a), (b), and (c) of FIG. 4A are images of a sample that is a double-stained living cell group of the inner wall of the intestine of a living laboratory mouse produced by staining the inner wall of the intestine with a 1%-curcumin solution and then staining the curcumin-stained inner wall with 1%-Acid Red (C27H29N2NaO7S2). A confocal laser microscope was used as the image device.
It is therefore determined that the site containing the cell group heavily stained with the curcumin stain is ultra-early cancer. The three panels (d), (e), and (f) in the lower row of FIG. 4A show images of the same site of the large intestine of the digestive tract of the laboratory mouse imaged in the same living body staining as that in the upper row, fixed with formalin, and then imaged in the fluorescence antibody technique. […] The section (f) is a (d)+(e) superimposed image.
The sections (d), (e), and (f) of FIG. 4A are produced by fixing the intestine of the laboratory mouse described above with formalin, then immunostaining the intestine with an anti-STAT3 antibody that bonds to the STAT3-family cancer-related gene product, and imaging the same location as those surrounded by the white frames in the sections (a), (b), and (c). In the sections (d) to (f), the samples were fixed with formalin and therefore slightly shrunk.

T1 sequence (P42227 whole entry): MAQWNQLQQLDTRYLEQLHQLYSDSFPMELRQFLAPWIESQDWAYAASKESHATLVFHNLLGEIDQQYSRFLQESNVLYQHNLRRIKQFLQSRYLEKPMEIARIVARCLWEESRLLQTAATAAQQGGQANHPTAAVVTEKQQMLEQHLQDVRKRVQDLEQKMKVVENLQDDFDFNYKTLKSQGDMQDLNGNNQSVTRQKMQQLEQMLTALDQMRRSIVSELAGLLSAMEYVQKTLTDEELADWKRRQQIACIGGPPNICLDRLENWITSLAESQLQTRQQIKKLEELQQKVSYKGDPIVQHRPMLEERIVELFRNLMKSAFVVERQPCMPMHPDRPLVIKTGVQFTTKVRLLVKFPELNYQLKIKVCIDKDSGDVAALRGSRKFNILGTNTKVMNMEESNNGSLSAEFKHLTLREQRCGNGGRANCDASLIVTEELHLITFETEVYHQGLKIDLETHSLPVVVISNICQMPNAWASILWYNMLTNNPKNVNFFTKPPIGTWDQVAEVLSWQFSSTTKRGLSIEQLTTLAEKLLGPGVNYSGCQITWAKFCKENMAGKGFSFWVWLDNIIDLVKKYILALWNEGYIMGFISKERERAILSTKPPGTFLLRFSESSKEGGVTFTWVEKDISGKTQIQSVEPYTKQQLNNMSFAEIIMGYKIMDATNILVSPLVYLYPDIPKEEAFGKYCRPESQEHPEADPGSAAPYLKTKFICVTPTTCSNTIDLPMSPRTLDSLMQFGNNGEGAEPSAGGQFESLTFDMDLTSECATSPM

Row | Compound | depth to which the tissue is stained (healthy mucosa tissue) | permeability in the cancer tissue compared with the healthy mucosa tissue (cancer tissue) | depth to which the tissue is stained (cancer tissue) | distribution of heavily stained cell group versus cell group with STAT3 highly expressed (anti-STAT3 antibody) [1] | depth to which the tissue is stained (healthy mucosa tissue; 5 min) | depth to which the tissue is stained (cancer tissue; 5 min)
1 | CCN(CC)c1ccc2c(-c3ccc(S(=O)(=O)[O-])cc3S(=O)(=O)[O-])c3ccc(=[N+](CC)CC)cc-3oc2c1.[Na+] [Acid Red] | about 70 μm | lower permeability | about 40 μm |  |  | 
2 | COc1cc(/C=C/C(=O)CC(=O)/C=C/c2ccc(O)c(OC)c2)ccc1O [curcumin] |  | higher permeability |  | coincides with the distribution of the cell group shown in the section (e) in the lower row and having the cancer-related gene product STAT3 highly expressed | about 20 μm | about 40 μm
